Measured values from the supplement of paper PMC8882468.

Assays:
Assay in all cases: CTG-3D luminescence at 96 h relative to day-0 seeding control (ratio to day 0); higher = more growth / less cytotoxicity
[1] = tested on: HCI-024 (organoid from a breast cancer xenograft)
Protocol: (§1)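 PDX-derived breast cancer organoids (PDxO) in 384-well Matrigel plates, 8-point dose (0.000000625-100 uM), 96 h at 37 C; CellTiter-Glo 3D luminescence normalised to the day-0 seeding control (mean of 4 technical replicates over mean of 4 day-0 wells).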

[2] = tested on: HCI-002 (organoid from a triple-negative breast cancer xenograft)
Protocol: as §1

[3] = tested on: HCI-027 (organoid from a triple-negative breast cancer xenograft)
Protocol: as §1

O=c1[nH]cc(F)c(=O)[nH]1 [5-fluorouracil]
CTG-3D luminescence at 96 h
Conditions | 12.5 pM | 0.00025 µM | 0.005 µM | 0.1 µM | 1 µM | 10 µM | 100 µM | 625 fM
[1], days in culture: 105 | 1.58 | 1.5 | 1.45 | 1.66 | 1.59 | 1.53 | 0.681 | 2.03
[1], days in culture: 122 | 2.23 | 2.19 | 1.64 | 1.97 | 1.98 | 2.04 | 0.857 | 3.11
[1], days in culture: 163 | 2.3 | 2.61 | 1.89 | 2.32 | 2.29 | 1.9 | 1.21 | 2.13
[2], days in culture: 62 | 2.85 | 2.76 | 3.08 | 2.64 | 2.28 | 2.07 | 1.07 | 3.16
[2], days in culture: 82 | 2.94 | 2.81 | 2.15 | 2.78 | 2.66 | 1.66 | 1.08 | 3.04
[2], days in culture: 91 | 4.34 | 3.73 | 3.78 | 4.16 | 2.98 | 3.14 | 1.6 | 4.03
[2], days in culture: 191 | 2.53 | 2.58 | 2.45 | 2.4 | 2.34 | 1.91 | 1.22 | 2.43
[2], days in culture: 209 | 2.41 | 2.39 | 2.11 | 2.23 | 2.05 | 1.43 | 1.02 | 2.45
[2], days in culture: 227 | 6.3 | 6.54 | 6.31 | 7.6 | 5.98 | 3.45 | 1.93 | 6.49
[3], days in culture: 176 | 2.05 | 1.56 | 2.56 | 1.65 | 2.29 | 0.753 | 0.527 | 1.98
[3], days in culture: 194 | 1.69 | 1.22 | 1.34 | 1.6 | 1.41 | 1.29 | 0.526 | 1.51
[3], days in culture: 201 | 1.96 | 1.99 | 2.23 | 1.8 | 1.26 | 1.05 | 0.398 | 1.53
